Experimental findings from paper PMC11350758, “Development of Xanthoangelol-Derived Compounds with Membrane-Disrupting Effects against Gram-Positive Bacteria” (Antibiotics, 2024) are described below.

Converted amounts (≈) assume the structure as drawn. Where only a bound is given, the exact number is not on record here.

Holding throughout (assay type): cell-based
In experiment [1] the test system is Staphylococcus aureus ATCC43300, methicillin-resistant strain. As to the kind of experiment: microbe, parasite or virus in culture. Conditions: ATCC 43300 / MRSA; Staphylococcus aureus ATCC43300 (MRSA); read-out: MIC S. a 43300. Put shortly:
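Per CLSI standards, compounds are serially diluted twofold in TSB, inoculated with an equal volume of bacteria at 10^6 CFU/mL and incubated 24 h at 37 °C. Vancomycin served as the positive drug; triplicate experiments.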

In experiment [2] the test system is preformed S. aureus ATCC43300 biofilm. Kind of experiment: Biofilm disruption assay (crystal violet). Particulars: biofilm grown for 24 h. The protocol: Bacterial biofilms created by the aggregation of bacteria is considered as one of the main reasons for the development of drug resistance. […] Subsequently, we further assessed the efficiency of 9h to eradicate the preformed biofilm. Matured S. aureus biofilm (grown for 24 h) was treated with compound 9h, and the rate of biofilm disruption was then assessed by the crystal violet staining assay.
Biofilm disruption: Briefly, S. aureus ATCC43300 (1 × 10^6 CFU/mL) was incubated in 96-well plates for 24 h to create biofilms. Next, the planktonic supernatant cells were removed. […] Then, the treated biofilm was determined by crystal violet assay. The OD values were measured at 575 nm. Biofilm disruption (%) = (ODcompound − ODblank)/(ODpositive control − ODblank) × 100%. All biological experiments were repeated three times.

Experiment [3] has as its system S. aureus ATCC43300. As to the kind of experiment: Cytoplasmic membrane depolarization assay, DiSC3(5). Particulars: 16 μg/mL, at 20 min. The protocol: To explore the antibacterial mechanism of compound 9h, a cytoplasmic membrane depolarization assay was performed against S. aureus ATCC43300 using 3,3′-dipropylthiadicarbocyanine iodide (DiSC3(5)) assay. In general, DiSC3(5) could penetrate the intact cell membranes and was quenched when accumulated inside the bacterial cells. Once the cell membrane was destroyed, DiSC3(5) was released from the cell membrane, leading to a significant increase in fluorescence intensity. […] Moreover, the fluorescence intensity in S. aureus increased in a dose-dependent manner with increasing concentrations of 9h.
Mid-log S. aureus ATCC43300 was collected and then washed with PBS three times. Bacterial suspension (1.0 × 10^8 CFU/mL, 150 μL) was added to a black 96-well plate, and then fluorescent dye DiSC3(5) (10 μM, 50 μL) was pipetted into each well of plates and preincubated in the dark for 30 min. After the incubation, the fluorescence intensity was measured every minute for 6 min using a microplate reader (SpectraMax i3x, Molecular Devices, Sunnyvale, CA, USA) (λex/λem = 622 nm/670 nm). […] All biological experiments were repeated three times.

Experiment [4] concerns S. aureus ATCC43300. Kind of experiment: Bactericidal time-kill assay. Particulars: 8× MIC, 16 μg/mL. The protocol:
Natural AMPs have rapid bactericidal properties, and in order to examine whether active compound 9h have similar rapid bactericidal properties, the time-kill kinetics of 9h were carried out to test the bactericidal action against S. aureus ATCC4330 at four different concentrations.
S. aureus ATCC43300 was cultured at 37 °C for 6 h and diluted to 1×10^6 CFU/mL. […] At each time point, the bacterial suspension (20 μL) was diluted in PBS, and the number of bacterial colonies was measured. All biological experiments were repeated three times.

For experiment [5], the system named is S. aureus ATCC43300. As to the kind of experiment: ROS assay (DCFH-DA). Particulars: 16 μg/mL. The protocol:
It is known that the disruption of bacterial cell membranes often causes the production of ROS in bacterial cells. The fluorescent probe DCFH-DA was used to monitor the level of intracellular ROS produced by S. aureus ATCC43300. DCFH-DA is initially non-fluorescent; however, it undergoes hydrolysis to DCFH upon entry into the cell. Subsequently, DCFH is converted to the fluorescent compound DCF when ROS are produced in the cells. […] The fluorescence intensity of 9h was about 8-fold higher than the PBS-treated group when the concentration of 9h increased 16 μg/mL.
Mid-log S. aureus ATCC43300 was collected and resuspended in PBS. Bacteria suspension (1.0 × 10^8 CFU/mL) was placed into a 96-well plate, and an equal volume of DCF-DA (10.0 μM) was mixed and incubated at 37 °C for 30 min. After incubation, the suspension was centrifuged (3500 rpm, 4 min), and the supernatant was removed and resuspended in PBS. […] The fluorescence intensity of each well was recorded by a microplate reader (Ex = 488 nm and Em = 530 nm). All biological experiments were repeated three times.

For experiment [6], the system named is S. aureus ATCC43300. Kind of experiment: DNA leakage study. Particulars: 16 μg/mL. The protocol: The destruction of bacterial cell membranes usually causes the leakage of macromolecules, including DNA and proteins. To investigate the effect of the compound 9h on the leakage of cytoplasmic contents, we performed DNA and protein leakage assays against S. aureus ATCC43300. The degree of damage to the bacterial cell membrane could be reflected by the concentrations of DNA and protein. The non-membrane-targeted antibiotic ciprofloxacin, membrane-targeted peptide melittin, and PBS were used as controls. […] A similar result were also observed in the leakage of protein with S. aureus (Figure 8C).
Mid-log S. aureus ATCC43300 was collected and resuspended in PBS (1.0 × 10^8 CFU/mL). […] The concentration of the protein was determined according to the method of the BCA assay kit (Thermo Fisher Scientific, Waltham, MA, USA), and the concentration of DNA in the supernatant was tested by a micro-spectrophotometer. All biological experiments were repeated three times.

`CC(=O)c1c(OCCCNCCCN2CCN(C)CC2)c2c(c3c1OC(C)(CCC=C(C)C)C=C3)OC(C)(CCC=C(C)C)C=C2` (stereo not drawn) [Compound 9h, 1-(2,8-Dimethyl-2,8-bis(4-methylpent-3-en-1-yl)-5-(3-((3-(4-methylpiperazin-1-yl)propyl)amino)propoxy)-2H,8H-pyrano [2,3-f]chromen-6-yl)ethan-1-one]: in experiment [1], the MIC came to 2 µg/mL (≈ 3.15 µM). The “eradication of preformed S. aureus biofilm” value in experiment [2] (8 μg/mL) is “about 19.83%”; in experiment [2] (1× MIC (2 μg/mL)), 11.65%. Further, in the experiment on S. aureus ATCC43300 [3], the “increase of DiSC3(5) fluorescence intensity vs blank control” value is given as “about 5 fold”. Further, the “time to complete bacterial killing” value in the experiment on S. aureus ATCC43300 [4] was 4 h. For the same compound, the “killing of S. aureus” value with S. aureus ATCC43300 [4] (within 1 h) is ≥ 99.9%. Besides, the “colony-forming unit (CFU) reduction” value in the experiment with S. aureus ATCC43300 [4] (within 1 h, compared with the control) worked out at 5.95 log. Further, in the experiment with S. aureus ATCC43300 [5], the “ROS fluorescence intensity vs PBS-treated group” value was “about 8 fold”. In the experiment with S. aureus ATCC43300 [6], the “concentration of DNA excreted vs blank control” value is on record as “approximately 5.5 fold”.
